# Data reported in US4778824A, “Method for suppressing a transplantation immunity and treating an allergic disease and an autoimmune disease” (Zaidan Hojin Biseibutsu Kagaku Kenkyu Kai, priority 1984, dated 1988).
# Entries after “also recorded” stand apart in the source; their conditions may differ.
# Key:
# [1] = tested on: bone marrow; assay: Bone marrow inhibition in the skin allograft test; format: in vivo, Fischer rats; conditions: i.p., 10 or 20 days
# Description: (§1) In the next place, the present inventors conducted a skin graft test with rats. In accordance with the method of Denham et al. (Denham et al., International Archives of Allergy and Applied Immunology, vol. 62, pp. 443-458, 1980), the skin of the tail of SHR rats was peeled and allografted onto Fischer rats. […] The inhibitory action of spergualin on tissue rejections is expected to manifest itself not only in skin transplantation but also in the transplantation of such organs as the kidney, heart, spleen, lung, liver, bone marrow and endocrine organs.
# (§2) Skin sections (5×10 mm) were peeled from the tails of SHR rats (female, 10 wk old) and transplanted to Fischer rats (female, 10 wk old) on the back. Varying doses of spergualin were administered intraperitoneally for a consecutive period of 10 or 20 days starting on the day following the transplantation. Complete necrosis of the graft was used as a measure of rejection and the inhibitory action of the compound was evaluated in terms of how long the rejection was postponed. […] The longer the period of administration, the greater the inhibitory action.
# [2] = tested on: Skin allograft rejection (SHR to Fischer rats); assay: Inhibition of rejection of skin allograft; format: in vivo
# Description: as §1, §2
# [3] = tested on: mice; conditions: cited from earlier work
compound,measurement,setting,value
"N=C(N)NCCCCC(O)CC(=O)NC(O)C(=O)NCCCCNCCCN (stereo not drawn) [spergualin, Spergualin]",inhibition of the bone marrow,[1],No inhibition of the bone marrow was observed; also recorded: No such side effects as bone marrow inhibition were observed
same,dose dependence of inhibitory action on skin allograft rejection,"[2]; i.p., 10 or 20 days",dose-dependent
same,inhibition of the rejection,[2]; throughout the administration period,Complete inhibition of the rejection
same,cumulative toxicity,[3],No cumulative toxicity was observed
same,lethality,[3]; gradual intravenous administration of 80 mg/kg,not lethal
same,LD50,[3]; intraperitoneal,approximately 150 mg/kg
